Results on three compounds are retold here after publication PMC4461042 (Structure (London, England : 1993), 2015).

The IC50 is the concentration that inhibits the measured activity by half. As usually defined, the Ki is the equilibrium dissociation constant of an inhibitor or competing ligand from its target.

One series concerns mice. Conditions: in vivo; cited from earlier work.
Series [1] has as its target T1, human neuronal α4β2 nAChR (Homo sapiens, UniProt P17787+P43681). Conditions: read-out: IC50, inhibition of ACh-evoked nicotinic currents; cited from earlier work.
Series [2] deals with T2, α3β2 nAChR (Homo sapiens, UniProt P17787+P32297). Conditions: cited from earlier work.
The target in series [3] is T3, human neuronal α7 nAChR (Homo sapiens, UniProt P36544). Conditions: read-out: IC50, inhibition of ACh-evoked nicotinic currents; cited from earlier work.
For a further series, the target named is L-AChBP (Lymnaea stagnalis, UniProt P58154). Format: binding.
The next series addresses A-AChBP (Aplysia californica, UniProt Q8WSF8). Format: binding. Conditions: for Kd: read-out: Kd/calc.
For a further series, the target named is full-length α7 nAChR (Homo sapiens, UniProt P36544). Format: binding.
The target in the next series is full-length α4β2 nAChR (Homo sapiens, UniProt P17787+P43681). It counts as binding.
Series [4] deals with muscle-type α1_2βγδ nAChR. To be noted: read-out: IC50, inhibition of ACh-evoked nicotinic currents; cited from earlier work.
Series [5] has as its target T4, α4β2 nAChR (Homo sapiens, UniProt P17787+P43681). Conditions: cited from earlier work.
The target in series [6] is T3, human neuronal α7 nAChR. It counts as cell-based.
Series [7] deals with T1, human neuronal α4β2 nAChR. Format: cell-based. To be noted: read-out: IC50, inhibition of ACh-evoked nicotinic currents.
For series [8], the system named is muscle-type α1_2βγδ nAChR. It counts as cell-based, Torpedo. To be noted: read-out: IC50, inhibition of ACh-evoked nicotinic currents.
Series [9] has as its target T4, α4β2 nAChR. Format: binding.
The next series addresses A-AChBP/α7 chimera III. It counts as binding. To be noted: read-out: Kd/equ.
Series [10] has as its target T2, α3β2 nAChR. It counts as binding.
The mark [11] stands for this setting: read-out: Kd/equ, competitive component.
Where [12] appears, read: read-out: Kd/equ, non-competitive component.

Where two headings read alike, the source gives them in different places.

Sequence of full-length α7 nAChR (P36544 23-502): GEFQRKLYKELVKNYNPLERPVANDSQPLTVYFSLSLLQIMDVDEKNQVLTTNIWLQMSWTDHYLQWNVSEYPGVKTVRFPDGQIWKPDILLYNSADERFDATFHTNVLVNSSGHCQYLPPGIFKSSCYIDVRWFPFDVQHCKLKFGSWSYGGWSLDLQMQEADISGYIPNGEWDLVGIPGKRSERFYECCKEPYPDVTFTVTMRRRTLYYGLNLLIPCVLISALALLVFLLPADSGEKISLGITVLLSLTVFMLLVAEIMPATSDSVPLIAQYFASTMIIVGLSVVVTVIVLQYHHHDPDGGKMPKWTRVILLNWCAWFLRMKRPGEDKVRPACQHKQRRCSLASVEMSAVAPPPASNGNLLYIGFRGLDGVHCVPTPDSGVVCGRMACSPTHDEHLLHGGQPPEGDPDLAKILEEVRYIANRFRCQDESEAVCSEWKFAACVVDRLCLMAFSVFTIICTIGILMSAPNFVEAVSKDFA
T3 sequence (P36544 23-502): as above
Sequence of full-length α4β2 nAChR (P17787 26-502): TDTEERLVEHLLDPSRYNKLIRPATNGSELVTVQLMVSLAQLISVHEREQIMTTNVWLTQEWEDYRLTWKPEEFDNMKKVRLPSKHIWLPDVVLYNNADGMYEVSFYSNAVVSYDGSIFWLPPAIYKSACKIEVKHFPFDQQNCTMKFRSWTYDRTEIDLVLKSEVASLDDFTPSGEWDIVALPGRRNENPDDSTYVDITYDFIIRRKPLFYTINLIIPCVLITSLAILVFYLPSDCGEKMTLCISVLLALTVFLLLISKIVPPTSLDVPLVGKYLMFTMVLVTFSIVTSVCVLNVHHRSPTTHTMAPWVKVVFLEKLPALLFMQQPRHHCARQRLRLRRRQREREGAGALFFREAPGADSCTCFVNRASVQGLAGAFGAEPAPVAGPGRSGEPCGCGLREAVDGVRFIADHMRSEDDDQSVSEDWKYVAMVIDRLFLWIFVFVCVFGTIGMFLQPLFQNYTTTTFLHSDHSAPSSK
Sequence of full-length α4β2 nAChR (P43681 29-627): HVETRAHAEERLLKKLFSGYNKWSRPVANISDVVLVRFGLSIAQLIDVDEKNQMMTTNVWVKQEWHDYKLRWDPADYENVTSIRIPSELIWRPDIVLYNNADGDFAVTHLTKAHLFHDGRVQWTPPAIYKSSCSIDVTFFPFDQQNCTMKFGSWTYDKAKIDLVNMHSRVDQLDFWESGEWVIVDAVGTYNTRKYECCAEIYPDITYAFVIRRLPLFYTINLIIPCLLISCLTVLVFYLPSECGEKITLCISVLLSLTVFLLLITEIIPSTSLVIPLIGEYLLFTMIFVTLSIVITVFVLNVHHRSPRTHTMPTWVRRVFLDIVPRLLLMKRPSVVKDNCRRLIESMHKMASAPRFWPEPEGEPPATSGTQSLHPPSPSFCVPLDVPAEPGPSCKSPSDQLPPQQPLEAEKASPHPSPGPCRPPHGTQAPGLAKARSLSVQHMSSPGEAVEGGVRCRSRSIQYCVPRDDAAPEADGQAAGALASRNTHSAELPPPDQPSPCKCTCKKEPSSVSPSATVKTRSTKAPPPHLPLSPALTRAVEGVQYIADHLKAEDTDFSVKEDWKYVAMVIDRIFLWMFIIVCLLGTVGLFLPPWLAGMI
Sequence of L-AChBP (P58154 20-229 limits assumed): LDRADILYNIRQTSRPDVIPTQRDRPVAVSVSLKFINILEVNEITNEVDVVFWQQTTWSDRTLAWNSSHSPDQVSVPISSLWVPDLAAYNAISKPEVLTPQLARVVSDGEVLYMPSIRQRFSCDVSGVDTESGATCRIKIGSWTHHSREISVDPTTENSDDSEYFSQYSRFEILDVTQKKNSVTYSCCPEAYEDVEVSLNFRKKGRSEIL
Sequence of A-AChBP (Q8WSF8 18-236 limits assumed): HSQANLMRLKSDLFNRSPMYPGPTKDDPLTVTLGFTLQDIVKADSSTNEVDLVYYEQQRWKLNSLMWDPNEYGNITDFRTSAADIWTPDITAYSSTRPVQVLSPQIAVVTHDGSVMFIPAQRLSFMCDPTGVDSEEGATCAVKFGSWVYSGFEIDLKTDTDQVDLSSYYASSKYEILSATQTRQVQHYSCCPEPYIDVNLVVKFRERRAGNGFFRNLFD
T2 sequence (P17787 26-502): as the sequence (P17787 26-502) above
T2 sequence (P32297 32-505): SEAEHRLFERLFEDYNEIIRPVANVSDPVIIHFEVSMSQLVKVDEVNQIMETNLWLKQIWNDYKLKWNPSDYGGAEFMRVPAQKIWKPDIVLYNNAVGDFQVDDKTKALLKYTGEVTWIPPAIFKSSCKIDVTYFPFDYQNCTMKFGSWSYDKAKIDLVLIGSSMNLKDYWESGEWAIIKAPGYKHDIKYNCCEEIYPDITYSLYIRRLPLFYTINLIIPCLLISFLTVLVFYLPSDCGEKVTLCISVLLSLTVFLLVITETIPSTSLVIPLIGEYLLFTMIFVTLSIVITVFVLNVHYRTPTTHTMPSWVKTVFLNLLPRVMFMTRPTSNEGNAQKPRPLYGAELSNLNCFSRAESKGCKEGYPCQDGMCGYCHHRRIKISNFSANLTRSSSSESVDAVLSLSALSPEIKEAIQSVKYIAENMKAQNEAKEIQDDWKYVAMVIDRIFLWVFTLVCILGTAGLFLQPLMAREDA
T4 sequence (P43681 29-627): as the sequence (P43681 29-627) above
T4 sequence (P17787 26-502): as the sequence (P17787 26-502) above
T1 sequence (P43681 29-627): as the sequence (P43681 29-627) above
T1 sequence (P17787 26-502): as the sequence (P17787 26-502) above

In the case of `C=C1CCCC2=NC[C@H](C)[C@@H](C)C[C@@]23CCC(C(=O)O)=C[C@@H]3[C@@H]2O[C@]3(C[C@H]4CCC[C@@]5(CC[C@@]6(O[C@@H](CC[C@@]6(C)O)C1)O5)O4)C[C@@H](C)[C@@H](O)[C@H]2O3` [(−)-PnTx-A], in the series on mice, the “activity in mouse assays” value is “inactive”.
For the compound `C=C1CCCC2=NC[C@H](C)[C@@H](C)C[C@@]23CCC(C(=O)O)=C[C@@H]3[C@@H]2O[C@]3(C[C@H]4CCC[C@@]5(CC[C@@]6(O[C@@H](CC[C@@]6(C)O)C1)O5)O4)C[C@@H](C)[C@@H](O)[C@H]2O3` [PnTx-A, pinnatoxin-A], the IC50 in series [1] was 30.4 nM; at human neuronal α7 nAChR [3] it was 0.107 nM; in series [4] it was 5.53 nM. The Ki at α3β2 nAChR [2] is 9.4 ± 1.9 nM; on α4β2 nAChR [5], 15.6 ± 5.2 nM. Moreover, the koff on L-AChBP was 31.6 ± 7.9 ^a min^−1; at A-AChBP, < 0.06 ^b min^−1. Also, the kon at L-AChBP is 0.21 ± 0.09 ^a 10^9 M^−1min^−1; at A-AChBP it was 1.4 ± 0.7 ^a 10^9 M^−1min^−1. The Kd is 170 ± 77 nM at L-AChBP (read-out: Kd/calc); below 0.05 nM at A-AChBP; 0.18 ± 0.1 nM at full-length α7 nAChR (setting [11]); 2.6 ± 1.3 nM on full-length α7 nAChR (setting [12]); 95 ± 11 nM at full-length α4β2 nAChR (setting [11]); 199 ± 1 nM on full-length α4β2 nAChR (setting [12]). Besides, the “greater potency (IC50) toward α7 than α4β2” value at human neuronal α7 nAChR [6] was ~ 300 fold.
Take `C=CC1=C[C@@H]2[C@@H]3O[C@]4(C[C@H]5CCC[C@@]6(CC[C@@]7(O[C@@H](CC[C@@]7(C)O)CC(=C)CCCC7=NC[C@H](C)[C@@H](C)C[C@@]72CC1)O6)O5)C[C@@H](C)[C@@H](O)[C@H]3O4` [PnTx-G, pinnatoxin-G]: the IC50 was 4.9 nM in [7], 3.82 nM in [8] and 5.06 nM at human neuronal α7 nAChR [3]. Also, the koff at L-AChBP was 60 ± 30 ^b min^−1; at A-AChBP it was 0.78 ± 0.06 ^b min^−1. Besides, the kon at L-AChBP was 0.17 ± 0.01 ^b 10^9 M^−1min^−1; on A-AChBP, 0.91 ± 0.03 ^b 10^9 M^−1min^−1. Further, the Kd was 360 ± 210 nM at L-AChBP (read-out: Kd/calc); 315 nM on L-AChBP (read-out: Kd/equ); 0.86 ± 0.09 nM at A-AChBP; 34 ± 4 nM at full-length α7 nAChR (setting [11]); 270 ± 50 nM on full-length α7 nAChR (setting [12]); 174 ± 19 nM on A-AChBP/α7 chimera III. For the same compound, the results for the Kd at full-length α4β2 nAChR (setting [11]) and on full-length α4β2 nAChR (setting [12]) were 99 ± 50 nM and 87 ± 62 nM, respectively. Further, the Ki at α4β2 nAChR [9] is 101 ± 30 nM; on α3β2 nAChR [10], 63.9 ± 1.2 nM. The “lower potency towards α7 compared with PnTx-A” value on human neuronal α7 nAChR [6] is ~ 50 fold.
